Species on record: Rattus norvegicus
Assay: Open TG-GATES - Regimen: Single
Assay type: toxicity, organism-based, Sprague-Dawley
Set-up: regimen Single, gender Male, age 6 weeks
Settings: in vivo, po, route gavage; for gamma-GTP / ALP / AST / BUN / CRE / Ca / Cl / DBIL / GLC / IP / K / LDH / Na / PL / RALB / TBIL / TC / TG / TP: tissue Plasma; for APTT / Bas / Eos / Fbg / Ht / MCH / MCHC / MCV / Mono / PT / Plat / RBC / Ret / WBC: tissue Blood; for KIDNEY_L / KIDNEY_R / KIDNEY_TOTAL: tissue Kidney; for LIVER: tissue Liver

SMILES: CC(=O)Nc1nnc(S(N)(=O)=O)s1 [ACETAZOLAMIDE]
- gamma-GTP (0 mg/kg, 24 h, dose level Control): 2.2 IU/L
- TERMINAL_BW (60 mg/kg, 3 h, dose level Low): 208.4 g
- APTT (60 mg/kg, 3 h, dose level Low): 22.2 s
- Bas (60 mg/kg, 3 h, dose level Low): 0%
- Eos (60 mg/kg, 3 h, dose level Low): 1%
- Fbg (60 mg/kg, 3 h, dose level Low): 313.4 mg/dL
- Ht (60 mg/kg, 3 h, dose level Low): 40.8%
- MCH (60 mg/kg, 3 h, dose level Low): 21.4 pg
- MCHC (60 mg/kg, 3 h, dose level Low): 32.1%
- MCV (60 mg/kg, 3 h, dose level Low): 66.9 fL
- Mono (60 mg/kg, 3 h, dose level Low): 1.6%
- PT (60 mg/kg, 3 h, dose level Low): 16.8 s
- Plat (60 mg/kg, 3 h, dose level Low): 125.7 x10_4/uL
- RBC (60 mg/kg, 3 h, dose level Low): 610.4 x10_4/ul
- Ret (60 mg/kg, 3 h, dose level Low): 8.6%
- WBC (60 mg/kg, 3 h, dose level Low): 69.8 x10_2/uL
- KIDNEY_L (60 mg/kg, 3 h, dose level Low): 0.9 g
- KIDNEY_R (60 mg/kg, 3 h, dose level Low): 1 g
- KIDNEY_TOTAL (60 mg/kg, 3 h, dose level Low): 1.9 g
- LIVER (60 mg/kg, 3 h, dose level Low): 9.5 g
- ALP (60 mg/kg, 3 h, dose level Low): 1527.8 IU/L
- AST (60 mg/kg, 3 h, dose level Low): 75.8 IU/L
- BUN (60 mg/kg, 3 h, dose level Low): 12.2 mg/dL
- CRE (60 mg/kg, 3 h, dose level Low): 0.2 mg/dL
- Ca (60 mg/kg, 3 h, dose level Low): 11.1 mg/dL
- Cl (60 mg/kg, 3 h, dose level Low): 111.6 meq/L
- DBIL (60 mg/kg, 3 h, dose level Low): 0 mg/dL
- GLC (60 mg/kg, 3 h, dose level Low): 184.6 mg/dL
- IP (60 mg/kg, 3 h, dose level Low): 9.6 mg/dL
- K (60 mg/kg, 3 h, dose level Low): 3.9 meq/L
- LDH (60 mg/kg, 3 h, dose level Low): 212.8 IU/L
- Na (60 mg/kg, 3 h, dose level Low): 141.4 meq/L
- PL (60 mg/kg, 3 h, dose level Low): 142.2 mg/dL
- RALB (60 mg/kg, 3 h, dose level Low): 3.4 g/dL
- TBIL (60 mg/kg, 3 h, dose level Low): 0.018 mg/dL
- TC (60 mg/kg, 3 h, dose level Low): 88 mg/dL
- TG (60 mg/kg, 3 h, dose level Low): 28.2 mg/dL
- TP (60 mg/kg, 3 h, dose level Low): 5.9 g/dL
- gamma-GTP (60 mg/kg, 3 h, dose level Low): 1.4 IU/L
- TERMINAL_BW (60 mg/kg, 6 h, dose level Low): 202.8 g
- APTT (60 mg/kg, 6 h, dose level Low): 23 s
- Bas (60 mg/kg, 6 h, dose level Low): 0%
- Eos (60 mg/kg, 6 h, dose level Low): 1%
- Fbg (60 mg/kg, 6 h, dose level Low): 336.6 mg/dL
- Ht (60 mg/kg, 6 h, dose level Low): 42.5%
- MCH (60 mg/kg, 6 h, dose level Low): 20.9 pg
- MCV (60 mg/kg, 6 h, dose level Low): 65.6 fL
- Mono (60 mg/kg, 6 h, dose level Low): 3%
- PT (60 mg/kg, 6 h, dose level Low): 16.8 s
- Plat (60 mg/kg, 6 h, dose level Low): 120.9 x10_4/uL
- RBC (60 mg/kg, 6 h, dose level Low): 648 x10_4/ul
- Ret (60 mg/kg, 6 h, dose level Low): 8.7%
- WBC (60 mg/kg, 6 h, dose level Low): 98.5 x10_2/uL
- KIDNEY_L (60 mg/kg, 6 h, dose level Low): 0.9 g
- KIDNEY_R (60 mg/kg, 6 h, dose level Low): 0.9 g
- KIDNEY_TOTAL (60 mg/kg, 6 h, dose level Low): 1.8 g
- LIVER (60 mg/kg, 6 h, dose level Low): 8.4 g
- ALP (60 mg/kg, 6 h, dose level Low): 1445.8 IU/L
- AST (60 mg/kg, 6 h, dose level Low): 72.8 IU/L
- BUN (60 mg/kg, 6 h, dose level Low): 11.8 mg/dL
- CRE (60 mg/kg, 6 h, dose level Low): 0.2 mg/dL
- Ca (60 mg/kg, 6 h, dose level Low): 11 mg/dL
- Cl (60 mg/kg, 6 h, dose level Low): 113 meq/L
- DBIL (60 mg/kg, 6 h, dose level Low): 0 mg/dL
- GLC (60 mg/kg, 6 h, dose level Low): 187.4 mg/dL
- IP (60 mg/kg, 6 h, dose level Low): 9.6 mg/dL
- K (60 mg/kg, 6 h, dose level Low): 4.2 meq/L
- LDH (60 mg/kg, 6 h, dose level Low): 177.4 IU/L
- Na (60 mg/kg, 6 h, dose level Low): 139.4 meq/L
- PL (60 mg/kg, 6 h, dose level Low): 138.2 mg/dL
- RALB (60 mg/kg, 6 h, dose level Low): 3.3 g/dL
- TBIL (60 mg/kg, 6 h, dose level Low): 0.024 mg/dL
- TC (60 mg/kg, 6 h, dose level Low): 83 mg/dL
- TG (60 mg/kg, 6 h, dose level Low): 27.2 mg/dL
- TP (60 mg/kg, 6 h, dose level Low): 5.9 g/dL
- gamma-GTP (60 mg/kg, 6 h, dose level Low): 1 IU/L
- TERMINAL_BW (60 mg/kg, 9 h, dose level Low): 205.8 g
- APTT (60 mg/kg, 9 h, dose level Low): 21.4 s
- Bas (60 mg/kg, 9 h, dose level Low): 0%
- Eos (60 mg/kg, 9 h, dose level Low): 0.8%
- Fbg (60 mg/kg, 9 h, dose level Low): 337.8 mg/dL
- Ht (60 mg/kg, 9 h, dose level Low): 41.7%
- MCH (60 mg/kg, 9 h, dose level Low): 20.5 pg
- MCHC (60 mg/kg, 9 h, dose level Low): 31.4%
- MCV (60 mg/kg, 9 h, dose level Low): 65.2 fL
- Mono (60 mg/kg, 9 h, dose level Low): 1.8%
- PT (60 mg/kg, 9 h, dose level Low): 16.7 s
- Plat (60 mg/kg, 9 h, dose level Low): 125.8 x10_4/uL
- RBC (60 mg/kg, 9 h, dose level Low): 640.2 x10_4/ul
- Ret (60 mg/kg, 9 h, dose level Low): 8.7%
- WBC (60 mg/kg, 9 h, dose level Low): 76.9 x10_2/uL
- KIDNEY_L (60 mg/kg, 9 h, dose level Low): 0.9 g
- KIDNEY_R (60 mg/kg, 9 h, dose level Low): 0.9 g
- KIDNEY_TOTAL (60 mg/kg, 9 h, dose level Low): 1.8 g
- LIVER (60 mg/kg, 9 h, dose level Low): 8.5 g
- ALP (60 mg/kg, 9 h, dose level Low): 1425.8 IU/L
- AST (60 mg/kg, 9 h, dose level Low): 59.8 IU/L
- BUN (60 mg/kg, 9 h, dose level Low): 13.8 mg/dL
- CRE (60 mg/kg, 9 h, dose level Low): 0.2 mg/dL
- Ca (60 mg/kg, 9 h, dose level Low): 11.1 mg/dL
- Cl (60 mg/kg, 9 h, dose level Low): 112.8 meq/L
- DBIL (60 mg/kg, 9 h, dose level Low): 0 mg/dL
- GLC (60 mg/kg, 9 h, dose level Low): 190.8 mg/dL
- IP (60 mg/kg, 9 h, dose level Low): 9.5 mg/dL
- K (60 mg/kg, 9 h, dose level Low): 4 meq/L
- LDH (60 mg/kg, 9 h, dose level Low): 158.2 IU/L
- Na (60 mg/kg, 9 h, dose level Low): 140 meq/L
- PL (60 mg/kg, 9 h, dose level Low): 133.4 mg/dL
- RALB (60 mg/kg, 9 h, dose level Low): 3.3 g/dL
- TBIL (60 mg/kg, 9 h, dose level Low): 0.026 mg/dL
- TC (60 mg/kg, 9 h, dose level Low): 81.8 mg/dL
- TG (60 mg/kg, 9 h, dose level Low): 35.4 mg/dL
- TP (60 mg/kg, 9 h, dose level Low): 5.9 g/dL
- gamma-GTP (60 mg/kg, 9 h, dose level Low): 1 IU/L
- TERMINAL_BW (60 mg/kg, 24 h, dose level Low): 217.9 g
- APTT (60 mg/kg, 24 h, dose level Low): 20.2 s
- Bas (60 mg/kg, 24 h, dose level Low): 0%
- Eos (60 mg/kg, 24 h, dose level Low): 0.8%
- Fbg (60 mg/kg, 24 h, dose level Low): 303.8 mg/dL
- Ht (60 mg/kg, 24 h, dose level Low): 40.5%
- MCH (60 mg/kg, 24 h, dose level Low): 20.9 pg
- MCHC (60 mg/kg, 24 h, dose level Low): 33.3%
- MCV (60 mg/kg, 24 h, dose level Low): 62.6 fL
- Mono (60 mg/kg, 24 h, dose level Low): 1.6%
- PT (60 mg/kg, 24 h, dose level Low): 16.7 s
- Plat (60 mg/kg, 24 h, dose level Low): 117.7 x10_4/uL
- RBC (60 mg/kg, 24 h, dose level Low): 647 x10_4/ul
- Ret (60 mg/kg, 24 h, dose level Low): 7.7%
- WBC (60 mg/kg, 24 h, dose level Low): 86.4 x10_2/uL
- KIDNEY_L (60 mg/kg, 24 h, dose level Low): 0.9 g
- KIDNEY_R (60 mg/kg, 24 h, dose level Low): 1 g
- KIDNEY_TOTAL (60 mg/kg, 24 h, dose level Low): 1.9 g
- LIVER (60 mg/kg, 24 h, dose level Low): 9.8 g
- ALP (60 mg/kg, 24 h, dose level Low): 1708.2 IU/L
- AST (60 mg/kg, 24 h, dose level Low): 61.2 IU/L
- BUN (60 mg/kg, 24 h, dose level Low): 20 mg/dL
- CRE (60 mg/kg, 24 h, dose level Low): 0.1 mg/dL
- Ca (60 mg/kg, 24 h, dose level Low): 10.9 mg/dL
- Cl (60 mg/kg, 24 h, dose level Low): 106.8 meq/L
- DBIL (60 mg/kg, 24 h, dose level Low): 0 mg/dL
- GLC (60 mg/kg, 24 h, dose level Low): 179.4 mg/dL
- IP (60 mg/kg, 24 h, dose level Low): 7.5 mg/dL
- K (60 mg/kg, 24 h, dose level Low): 4 meq/L
- LDH (60 mg/kg, 24 h, dose level Low): 156.8 IU/L
- Na (60 mg/kg, 24 h, dose level Low): 142.6 meq/L
- PL (60 mg/kg, 24 h, dose level Low): 136.2 mg/dL
- RALB (60 mg/kg, 24 h, dose level Low): 3.2 g/dL
- TBIL (60 mg/kg, 24 h, dose level Low): 0.01 mg/dL
- TC (60 mg/kg, 24 h, dose level Low): 73.2 mg/dL
- TG (60 mg/kg, 24 h, dose level Low): 109.6 mg/dL

Source: ChEMBL document CHEMBL3885861, “Open TG-GATES”
